target: T1, EGFR (Homo sapiens, UniProt P00533); experiment: EGFR ELISA assay (in vitro kinase activity, EGFR captured from A431 cell lysate); assay type: biochemical; design: concentration or dose not given beside the values
T1 construct: Add 7 ug A431 cell lysate per well (EGFR source); endogenous in cells; host or cells: A431
Outline: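 EGFR from A431 lysate was captured on anti-EGFR antibody-coated plates and preincubated with compounds for 30 min. Autophosphorylation ran 5 min with 3 uM ATP and 5 mM MnCl2 (final), stopped with 20 mM EDTA. Phosphotyrosine was detected by anti-pTyr ELISA with ABTS/H2O2, read at 410 nm.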

T1 sequence (P00533 25-1210): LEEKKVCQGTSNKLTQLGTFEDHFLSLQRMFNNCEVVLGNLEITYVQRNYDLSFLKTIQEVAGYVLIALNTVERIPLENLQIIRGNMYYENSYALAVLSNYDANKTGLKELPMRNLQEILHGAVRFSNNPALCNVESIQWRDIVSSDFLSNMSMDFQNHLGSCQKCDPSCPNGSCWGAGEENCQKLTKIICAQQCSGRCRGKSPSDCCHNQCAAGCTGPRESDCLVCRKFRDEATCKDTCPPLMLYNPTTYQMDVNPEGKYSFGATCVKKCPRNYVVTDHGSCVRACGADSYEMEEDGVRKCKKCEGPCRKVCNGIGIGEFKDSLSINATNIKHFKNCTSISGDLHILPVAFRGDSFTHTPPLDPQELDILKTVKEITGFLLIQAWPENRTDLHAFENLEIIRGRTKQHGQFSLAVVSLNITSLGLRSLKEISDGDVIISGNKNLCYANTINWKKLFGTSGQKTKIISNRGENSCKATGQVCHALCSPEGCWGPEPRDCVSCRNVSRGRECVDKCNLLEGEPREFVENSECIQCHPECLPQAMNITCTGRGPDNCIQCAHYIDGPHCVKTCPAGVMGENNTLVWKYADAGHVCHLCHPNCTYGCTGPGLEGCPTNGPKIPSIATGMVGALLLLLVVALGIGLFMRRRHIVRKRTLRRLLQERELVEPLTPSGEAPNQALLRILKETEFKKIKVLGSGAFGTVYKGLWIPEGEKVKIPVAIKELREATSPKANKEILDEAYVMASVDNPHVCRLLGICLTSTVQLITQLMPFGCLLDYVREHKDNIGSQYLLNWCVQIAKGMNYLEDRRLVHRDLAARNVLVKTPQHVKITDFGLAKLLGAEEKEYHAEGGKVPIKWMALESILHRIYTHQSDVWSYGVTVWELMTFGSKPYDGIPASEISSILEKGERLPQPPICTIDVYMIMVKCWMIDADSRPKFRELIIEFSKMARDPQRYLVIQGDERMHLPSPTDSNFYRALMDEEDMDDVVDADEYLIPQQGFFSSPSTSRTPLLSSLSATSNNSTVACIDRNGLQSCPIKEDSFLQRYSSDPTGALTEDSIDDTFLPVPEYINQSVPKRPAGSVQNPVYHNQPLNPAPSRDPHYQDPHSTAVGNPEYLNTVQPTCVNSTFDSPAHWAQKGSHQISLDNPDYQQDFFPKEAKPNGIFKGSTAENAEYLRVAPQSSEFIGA

Row | SMILES | Biochem EGFR %Inhibition [%]
1 | CSc1ccc(C=C2C(=O)Nc3ccc(CCCl)cc32)cc1 [10729/G04] | 52.9
2 | O=C1Nc2c(Br)cc(Br)cc2C1=Cc1ccc(Br)cc1 [10717/A08] | 39.1
3 | O=C1Nc2ccc(S(=O)(=O)Nc3ccc(C(F)(F)F)cc3)cc2C1=Cc1cccnc1 [10729/E08] | 40.1
4 | COc1ccc(C=C2C(=O)Nc3ccc(S(=O)(=O)Nc4ccc(C(F)(F)F)cc4)cc32)c(OC)c1OC [10730/E02] | 17.7
5 | Cc1c(Br)ccc2c1C(=Cc1cc3ccccc3nc1Cl)C(=O)N2 [10730/C08] | 24.3
6 | CNS(=O)(=O)c1ccc2c(c1)C(=CC1CC(OC)OC1OC)C(=O)N2 (centres unmarked) [10730/D10] | 16.7
7 | O=C1Nc2ccc(S(=O)(=O)Nc3ccc(C(F)(F)F)cc3)cc2C1=Cc1ccc(-c2ccccc2Cl)o1 [10730/E07] | 18.8
8 | COC(=O)c1[nH]c(C)c(C=C2C(=O)Nc3ccc(I)cc32)c1C(=O)OC [10718/B07] | 9.9
9 | O=C1Nc2ccc(S(=O)(=O)Nc3ccc(C(F)(F)F)cc3)cc2C1=CC1C=CCCC1 (centres unmarked) [10729/E11] | 25.7
10 | O=C1Nc2ccc(CCCl)cc2C1=Cc1ccncc1 [10729/G09] | 20.8
11 | CNS(=O)(=O)c1ccc2c(c1)C(=Cc1cc(C)c(C)o1)C(=O)N2 [10730/D11] | 2.0
12 | COc1cc(OC)c(OC)cc1C=C1C(=O)Nc2c(Br)cc(Br)cc21 [10730/A03] | 34.4
13 | COc1cc(Br)c(O)c(C=C2C(=O)Nc3ccc(Br)c(C)c32)c1 [10718/C03] | 41.3
14 | Cc1c(Br)ccc2c1C(=Cc1coc3c(Br)cc(Br)cc3c1=O)C(=O)N2 [10730/C09] | 28.2
15 | O=C1Nc2ccc(S(=O)(=O)Nc3ccc(C(F)(F)F)cc3)cc2C1=Cc1ccncc1 [10729/E09] | 29.6
16 | O=C1Nc2ccc(I)cc2C1=Cc1coc2ccc(Cl)cc2c1=O [10730/B06] | 25.0
17 | O=C1Nc2ccc(S(=O)(=O)Nc3ccc(C(F)(F)F)cc3)cc2C1=Cc1cc2ccccc2nc1Cl [10730/E08] | 6.2
18 | COc1ccc(C=C2C(=O)Nc3c(Br)cc(Br)cc32)c(OC)c1OC [10730/A02] | 27.5
19 | O=C1Nc2c(Br)cc(Br)cc2C1=Cc1cc2ccccc2nc1Cl [10730/A08] | 10.4
20 | Cc1c(Br)ccc2c1C(=Cc1ccc3ccccc3c1O)C(=O)N2 [10718/C04] | 14.8
21 | O=C1Nc2ccc(I)cc2C1=Cc1ccco1 [10718/B10] | 13.7
22 | CC(=O)n1cc(C=C2C(=O)Nc3ccc(I)cc32)c2ccccc21 [10730/B05] | 8.5
23 | O=C1Nc2ccc(I)cc2C1=Cc1cc2ccccc2nc1Cl [10730/B08] | 48.4
24 | O=C1Nc2ccc(S(=O)(=O)N3CCOCC3)cc2C1=Cc1coc2ccc(Cl)cc2c1=O [10730/F06] | -0.6

Row | SMILES | Biochem EGFR %Inhibition [%]
25 | COc1cc(C=C2C(=O)Nc3ccc(S(=O)(=O)N4CCOCC4)cc32)cc(OC)c1OC [10730/F04] | -4.8
26 | COc1cc(OC)c(OC)cc1C=C1C(=O)Nc2ccc(S(=O)(=O)Nc3ccc(C(F)(F)F)cc3)cc21 [10730/E03] | 65.3
27 | O=C1Nc2ccc(I)cc2C1=Cc1coc2c(Br)cc(Br)cc2c1=O [10730/B09] | 14.2
28 | CNS(=O)(=O)c1ccc2c(c1)C(=Cc1ccc(OC)c(OC)c1OC)C(=O)N2 [10730/D02] | 18.6
29 | O=C1Nc2ccc(S(=O)(=O)Nc3ccc(C(F)(F)F)cc3)cc2C1=Cc1ccc(N2CCCC2)cc1 [10729/E10] | 50.3
30 | O=C1Nc2ccc(S(=O)(=O)N3CCOCC3)cc2C1=Cc1ccc(-c2ccccc2Cl)o1 [10730/F07] | 27.3
31 | Cc1cc(C=C2C(=O)Nc3ccc(Br)c(C)c32)oc1C [10730/C11] | 38.4
32 | COC1CC(C=C2C(=O)Nc3ccc(I)cc32)C(OC)O1 (centres unmarked) [10730/B10] | 15.8
33 | COC1CC(C=C2C(=O)Nc3ccc(S(=O)(=O)Nc4ccc(C(F)(F)F)cc4)cc32)C(OC)O1 (centres unmarked) [10730/E10] | 9.3
34 | O=C1Nc2ccc(I)cc2C1=Cc1ccc([N+](=O)[O-])o1 [10718/B11] | 30.3
35 | CNS(=O)(=O)c1ccc2c(c1)C(=Cc1cc(OC)c(OC)cc1OC)C(=O)N2 [10730/D03] | 9.9
36 | O=C1Nc2c(Br)cc(Br)cc2C1=Cc1coc2c(Br)cc(Br)cc2c1=O [10730/A09] | 1.1
37 | CNS(=O)(=O)c1ccc2c(c1)C(=Cc1coc3c(Br)cc(Br)cc3c1=O)C(=O)N2 [10730/D09] | 45.1
38 | COc1ccc(C=C2C(=O)Nc3ccc(S(=O)(=O)N4CCOCC4)cc32)c(OC)c1OC [10730/F02] | 2.9
39 | COc1cc(C=C2C(=O)Nc3c(Br)cc(Br)cc32)cc(OC)c1OC [10730/A04] | 37.2
40 | O=C1Nc2c(Br)cc(Br)cc2C1=Cc1ccc(-c2ccccc2Cl)o1 [10730/A07] | 10.4
41 | Cc1cc(C=C2C(=O)Nc3ccc(I)cc32)oc1C [10730/B11] | 70.2
42 | Cc1cc(C=C2C(=O)Nc3ccc(S(=O)(=O)Nc4ccc(C(F)(F)F)cc4)cc32)oc1C [10730/E11] | 19.1
43 | COc1cc(OC)c(OC)cc1C=C1C(=O)Nc2ccc(Br)c(C)c21 [10730/C03] | -12.1
44 | COC1CC(C=C2C(=O)Nc3ccc(Br)c(C)c32)C(OC)O1 (centres unmarked) [10730/C10] | 20.5
45 | COc1ccc2ccccc2c1C=C1C(=O)Nc2ccc(CCCl)cc21 [10729/G02] | -4.8
46 | CCOC(=O)c1c(C)[nH]c(C=C2C(=O)Nc3ccc(Br)c(C)c32)c1C [10718/C02] | -21.9
47 | CNS(=O)(=O)c1ccc2c(c1)C(=Cc1cc(OC)c(OC)c(OC)c1)C(=O)N2 [10730/D04] | 10.4
48 | COc1cc(C=C2C(=O)Nc3ccc(S(=O)(=O)Nc4ccc(C(F)(F)F)cc4)cc32)cc(OC)c1OC [10730/E04] | 13.5

Row | SMILES | Biochem EGFR %Inhibition [%]
49 | O=C1Nc2ccc(I)cc2C1=Cc1ccc(Cl)c([N+](=O)[O-])c1 [10718/B08] | 28.9
50 | COc1cc(C=C2C(=O)Nc3ccc(I)cc32)cc(OC)c1OC [10730/B04] | 36.5
51 | Cc1c(Br)ccc2c1C(=Cc1ccc(-c3ccccc3Cl)o1)C(=O)N2 [10730/C07] | 20.3
52 | CNS(=O)(=O)c1ccc2c(c1)C(=Cc1cc3ccccc3nc1Cl)C(=O)N2 [10730/D08] | 44.9
53 | COC1CC(C=C2C(=O)Nc3c(Br)cc(Br)cc32)C(OC)O1 (centres unmarked) [10730/A10] | 56.1
54 | O=C1Nc2ccc(CCCl)cc2C1=Cc1cccnc1 [10729/G08] | 6.0
55 | CNS(=O)(=O)c1ccc2c(c1)C(=Cc1ccc(-c3ccccc3Cl)o1)C(=O)N2 [10730/D07] | 43.0
56 | COc1ccc(C=C2C(=O)Nc3ccc(CCCl)cc32)c2ccccc12 [10729/G03] | 14.6
57 | Cc1c(O)ccc(C=C2C(=O)Nc3ccc(I)cc32)c1O [10718/B09] | -0.8
58 | O=C1Nc2ccc(CCCl)cc2C1=Cc1ccccn1 [10729/G07] | -0.8
59 | CC(=O)n1cc(C=C2C(=O)Nc3ccc(Br)c(C)c32)c2ccccc21 [10730/C05] | -9.8
60 | COc1ccc(C=C2C(=O)Nc3ccc(I)cc32)c(OC)c1OC [10730/B02] | 10.4
61 | CC(=O)n1cc(C=C2C(=O)Nc3c(Br)cc(Br)cc32)c2ccccc21 [10730/A05] | 18.6
62 | O=C1Nc2ccc(CCCl)cc2C1=Cc1ccc(N2CCCC2)cc1 [10729/G10] | 60.1
63 | Cc1cc(C=C2C(=O)Nc3c(Br)cc(Br)cc32)oc1C [10730/A11] | 56.4
64 | O=C1Nc2ccc(CCCl)cc2C1=CC1C=CCCC1 (centres unmarked) [10729/G11] | 23.4
65 | COc1cc(OC)c(OC)cc1C=C1C(=O)Nc2ccc(S(=O)(=O)N3CCOCC3)cc21 [10730/F03] | 10.4
66 | COc1ccc(C=C2C(=O)Nc3ccc(Br)c(C)c32)c(OC)c1OC [10730/C02] | 2.7
67 | O=C1Nc2ccc(S(=O)(=O)N3CCOCC3)cc2C1=Cc1cc2ccccc2nc1Cl [10730/F08] | 0.8
68 | COc1cc(OC)c(OC)cc1C=C1C(=O)Nc2ccc(I)cc21 [10730/B03] | 46.8
69 | O=C1Nc2ccc(I)cc2C1=Cc1ccc(-c2ccccc2Cl)o1 [10730/B07] | 57.1
70 | CC(=O)n1cc(C=C2C(=O)Nc3ccc(S(=O)(=O)Nc4ccc(C(F)(F)F)cc4)cc32)c2ccccc21 [10730/E05] | 15.8
71 | Cc1ccsc1C=C1C(=O)Nc2ccc(CCCl)cc21 [10729/G05] | 4.4

Reference: patent publication EP1247803A2, “Indolinone compounds suitable for modulation of protein kinases” (Sugen, Inc., priority 1996, dated 1998)
